The source of these data is patent publication US8178506B2, “Oligomeric compounds and compositions for use in modulation of small non-coding RNAs” (Regulus Therapeutics Inc., priority 2003, dated 2012).

The test system of one data set is HepG2 cells. Put plainly: Insulin signaling assay in HepG2 cells, marker genes taken together. Type of data set: cell-based, human. The settings on record: for expression of the IGFBP-1, PEPCK-c and follistatin marker genes: 100 nM.
The next data set concerns PEPCK-c. Put plainly: PEPCK-c mRNA expression in HepG2 cells. Type of data set: cell-based, human. The settings on record: 100 nM; for reduction of PEPCK-c mRNA expression: HepG2, 1 nM insulin.
Data set [1] concerns preadipocytes / differentiating adipocytes. Put plainly: Adipocyte differentiation assay, markers taken together. The data set is classed as cell-based, human.
The subject of a further data set is adipocytes. Nature of the data set: Triglyceride accumulation assay in adipocytes. The settings on record: preadipocytes, 250 nM, day nine. The data set is classed as cell-based, human.
The test system of another data set is leptin. Put plainly: Leptin secretion by adipocytes (ELISA). Type of data set: cell-based, human. The settings on record: preadipocytes, 250 nM, day nine. The procedure:
Leptin secretion into the medium in which adipocytes are cultured is measured by protein ELISA. On day nine post-transfection, 96-well plates are coated with a monoclonal antibody to human leptin (R&D Systems, Minneapolis, Minn.) and left at 4° C. overnight. The plates are blocked with bovine serum albumin (BSA), and a dilution of the treated adipoctye medium is incubated in the plate at room temperature for approximately 2 hours. After washing to remove unbound components, a second monoclonal antibody to human leptin (conjugated with biotin) is added. The plate is then incubated with strepavidin-conjugated horse radish peroxidase (HRP) and enzyme levels are determined by incubation with 3, 3′,5,5′-tetramethlybenzidine, which turns blue when cleaved by HRP. The OD450 is read for each well, where the dye absorbance is proportional to the leptin concentration in the cell lysate.
Leptin is also a marker for differentiated adipocytes. In the adipocyte assay, leptin secretion into the media above the differentiated adipocytes was measured by protein ELISA. Cell growth, transfection and differentiation procedures were carried out as described for the Triglyceride accumulation assay (see below). On day nine post-transfection, 96-well plates were coated with a monoclonal antibody to human leptin (R&D Systems, Minneapolis, Minn.) and left at 4° C. overnight. The plates were blocked with bovine serum albumin (BSA), and a dilution of the media was incubated in the plate at RT for 2 hours. After washing to remove unbound components, a second monoclonal antibody to human leptin (conjugated with biotin) was added. The plate was then incubated with strepavidin-conjugated horseradish peroxidase (HRP) and enzyme levels are determined by incubation with 3, 3′, 5,5′-Tetramethlybenzidine, which turns blue when cleaved by HRP. The OD450 was read for each well, where the dye absorbance is proportional to the leptin concentration in the cell lysate. Results are expressed as a percent±standard deviation relative to transfectant-only controls.

In a further data set the test system is HuVECs. Put plainly: Endothelial tube formation assay in HuVECs. The settings on record: 75 nM.
The subject of a further data set is T47D cells. Put plainly: Caspase-3 activity assay (apoptosis) in T47D cells. As to conditions: caspase assay, 200 nM; conclusion from Tables 9-12.
The next data set relates to ob/ob mice. Put plainly: ob/ob mice: plasma parameters, food consumption, marker gene mRNA. The settings on record: six week old ob/ob mice, 25 mg/kg twice weekly for four weeks. Type of data set: in vivo, mouse. The source says:
Leptin is a hormone produced by fat cells that regulates appetite. Deficiencies in this hormone in both humans and non-human animals leads to obesity. ob/ob mice have a mutation in the leptin gene which results in obesity and hyperglycemia. As such, these mice are a useful model for the investigation of obesity and diabetes and treatments designed to treat these conditions. ob/ob mice have higher circulating levels of insulin and are less hyperglycemic than db/db mice, which harbor a mutation in the leptin receptor. In accordance with the present invention, the oligomeric compounds of the invention are tested in the ob/ob model of obesity and diabetes.
Seven-week old male C57B1/6J-Lep ob/ob mice (Jackson Laboratory, Bar Harbor, Me.) are fed a diet with a fat content of 10-15% and are subcutaneously injected with the oligomeric compounds of the invention or a control compound at a dose of 25 mg/kg two times per week for 4 weeks. Saline-injected animals, leptin wildtype littermates (i.e. lean littermates) and ob/ob mice fed a standard rodent diet serve as controls. After the treatment period, mice are sacrificed and target levels are evaluated in liver, brown adipose tissue (BAT) and white adipose tissue (WAT). RNA isolation and target RNA expression level quantitation are performed as described by other examples herein.
To assess the physiological effects resulting from modulation of target, the ob/ob mice are evaluated at the end of the treatment period for serum lipids, serum free fatty acids, serum cholesterol (CHOL), liver triglycerides, fat tissue triglycerides and liver enzyme levels. Hepatic steatosis, or clearing of lipids from the liver, is assessed by measuring the liver triglyceride content. Hepatic steatosis is assessed by routine histological analysis of frozen liver tissue sections stained with oil red O stain, which is commonly used to visualize lipid deposits, and counterstained with hematoxylin and eosin, to visualize nuclei and cytoplasm, respectively.
The effects of target modulation on glucose and insulin metabolism are evaluated in the ob/ob mice treated with the oligomeric compounds of the invention. Plasma glucose is measured at the start of the treatment and after 2 weeks and 4 weeks of treatment. Plasma insulin is similarly measured at the beginning of the treatment, and following at 2 weeks and at 4 weeks of treatment. Glucose and insulin tolerance tests are also administered in fed and fasted mice. Mice receive intraperitoneal injections of either glucose or insulin, and the blood glucose and insulin levels are measured before the insulin or glucose challenge and at 15, 20 or 30 minute intervals for up to 3 hours.
The ob/ob mice that receive treatment are evaluated at the end of the treatment period for the effects of target modulation on the expression of genes that participate in lipid metabolism, cholesterol biosynthesis, fatty acid oxidation, fatty acid storage, gluconeogenesis and glucose metabolism. These genes include, but are not limited to, HMG-CoA reductase, acetyl-CoA carboxylase 1 and acetyl-CoA carboxylase 2, camitine palmitoyltransferase I and glycogen phosphorylase, glucose-6-phosphatase and phosphoenolpyruvate carboxykinase 1, lipoprotein lipase and hormone sensitive lipase. mRNA levels in liver and white and brown adipose tissue are quantitated by real-time PCR as described in other examples herein, employing primer/probe sets that are generated using published sequences of each gene of interest.
As described herein, leptin-deficient (ob/ob) mice, leptin receptor-deficient (db/db) mice and diet-induced obesity (DIO) mice are used to model obesity and diabetes. In accordance with the present invention, oligomeric compounds targeting mir-143, mir-131 (also known as mir-9) and mir-203 were tested in the ob/ob and db/db models. […]

In the oligonucleotide strings, read from the 5' end, every base follows the letter of its sugar. An asterisk marks phosphorothioate; unmarked linkages are phosphodiester. Other units and linkages are bracketed, terminal groups are in braces. A string of capitals states the bases alone. e = 2'-O-(2-methoxyethyl) (MOE); [5mC] = 5-methylcytosine; d = 2'-deoxy (DNA)

Regarding “ISIS 328765: oligomeric compound targeting mir-215 (antisense eG*eA*e[5mC]*eA*eA*dA*d[5mC]*dT*d[5mC]*dA*dG*d[5mC]*dT*dA*dT*eA*eT*eT*eG*eT)”, in the data set with HepG2 cells (HepG2, 1 nM insulin), the “mRNA levels of the IGFBP-1 and follistatin genes” value was “also reduced”. In addition, the “reduction of PEPCK-c mRNA expression” value with PEPCK-c is 27%.

In the case of “ACAGGCCGGGACAAGTGCAATA (anti-miR; chemistry not fully specified) [ISIS 327897, uniform 2′-MOE PS; targets mir-92-1]”, in the data set on HepG2 cells (HepG2, basal (no insulin)), the “expression of the IGFBP-1 and follistatin marker genes” value was “increased expression of the IGFBP-1 and follistatin marker genes”. The “5 markers of adipocyte differentiation” value in data set [1] (differentiating adipocytes, % of UTC (Table 75)) is on record as “significant reduction in expression of 4 of the 5 markers of differentiation”.

Take “AACCGATTTCAAATGGTGCTAG (anti-miR; chemistry not fully specified) [ISIS 327913, uniform 2′-MOE PS; targets mir-29c]”: the “expression of the IGFBP-1, PEPCK-c and follistatin marker genes” value is “increased expression of the IGFBP-1, PEPCK-c and follistatin marker genes” with HepG2 cells (HepG2, 1 nM insulin); “increased expression of the IGFBP-1, PEPCK-c and follistatin marker genes” in the data set with HepG2 cells (HepG2, basal (no insulin)).

TCACAAGTTAGGGTCTCAGGGA [ISIS 327939]: the “expression of the IGFBP-1, PEPCK-c and follistatin marker genes” value in the data set on HepG2 cells (HepG2, 1 nM insulin) was “increased expression of the IGFBP-1, PEPCK-c and follistatin marker genes”. Moreover, in the data set with adipocytes, the triglyceride accumulation result is “decrease in triglyeride accumulation”. The Leptin (secretion) result in the data set with leptin is listed as “significant increase in leptin secretion”. Also, in data set [1] (preadipocytes, 250 nM, day nine), the “expression of the four adipocyte differentiation hallmark genes” value was “decrease in the expression of all four adipocyte differentiation hallmark genes”.

Consider “ISIS 341802: SEQ ID NO: 1806, targeting mir-191 (antisense AGCUGCUUUUGGGAUUCCGUUG; all 2'-MOE, all phosphorothioate, methylation of C and T or U not given here)”, for which the “expression of the IGFBP-1 and follistatin marker genes” value with HepG2 cells (HepG2, basal (no insulin)) was “increased expression of the IGFBP-1 and follistatin marker genes”.

In the case of “ISIS 328761: oligomeric compound targeting hypothetical mir-138 (antisense eG*e[5mC]*eA*eG*eG*d[5mC]*dT*dA*dA*dA*dA*dG*dA*dA*dA*eT*eA*eA*eG*e[5mC])”, the “mRNA levels of the IGFBP-1 and follistatin genes” value in the data set with HepG2 cells (HepG2, 1 nM insulin) was “also reduced”. In addition, the “reduction of PEPCK-c mRNA expression” value in the data set on PEPCK-c stood at 45%. Besides, the “decrease in PEPCK-c mRNA” value in the data set with PEPCK-c (HepG2, basal (no insulin)) was 52%.

As for “TAGCTGGTTGAAGGGGACCAA (anti-miR; chemistry not fully specified) [ISIS 327925, uniform 2′-MOE PS; targets mir-133b]”, the tube formation result in the data set on HuVECs is reported as “suppressed tube formation”. The “expression of the IGFBP-1, PEPCK-c and follistatin marker genes” value in the data set with HepG2 cells (HepG2, 1 nM insulin) is “increased expression of the IGFBP-1, PEPCK-c and follistatin marker genes”.

“CCAAGTTCTGTCATGCACTGA (anti-miR; chemistry not fully specified) [ISIS 327964, uniform 2′-MOE PS; targets mir-152]”: in the data set on HepG2 cells (HepG2, 1 nM insulin), the “expression of the IGFBP-1, PEPCK-c and follistatin marker genes” value was “increased expression of the IGFBP-1, PEPCK-c and follistatin marker genes”.

Regarding “GGGGTATTTGACAAACTGACA (anti-miR; chemistry not fully specified) [ISIS 327961, uniform 2′-MOE PS; targets mir-223]”, in the data set on HepG2 cells (HepG2, 1 nM insulin), the “expression of the IGFBP-1, PEPCK-c and follistatin marker genes” value is “increased expression of the IGFBP-1, PEPCK-c and follistatin marker genes”. Also, the “expression of the IGFBP-1 and follistatin marker genes” value in the data set with HepG2 cells (HepG2, basal (no insulin)) was “increased expression of the IGFBP-1 and follistatin marker genes”.

In the case of “ISIS 328377: 5-10-5 2′-MOE gapmer PS; targets hypothetical miRNA-030 pri-miRNA (eT*e[5mC]*eA*e[5mC]*eT*d[5mC]*d[5mC]*dT*dA*dA*dA*dG*dG*dT*dT*e[5mC]*eA*eA*eG*eT)”, the “apoptosis in T47D cells” value in the data set with T47D cells is “prevent or have a protective effect from apoptosis”. Also, the “expression of the IGFBP-1, PEPCK-c and follistatin marker genes” value in the data set with HepG2 cells (HepG2, 1 nM insulin) is “increased expression of the IGFBP-1, PEPCK-c and follistatin marker genes”.

Consider “CAGCCGCTGTCACACGCACAG (anti-miR; chemistry not fully specified) [ISIS 327959, uniform 2′-MOE PS; targets mir-210]”, for which, in the data set on HuVECs, the tube formation result was “suppressed tube formation”. Besides, the “IGFBP-1 and PEPCK-c marker genes” value in the data set with HepG2 cells (HepG2, basal (no insulin)) was “increases in the IGFBP-1 and PEPCK-c marker genes”.

For the substance “GAAACCCAGCAGACAATGTAGCT (anti-miR; chemistry not fully specified) [ISIS 345384, PS 2′-MOE 5-10-8 gapmer; targets mir-221]”, the “plasma glucose levels in the fed state” value in the data set with ob/ob mice is “reductions in plasma glucose levels in the fed state at weeks two and four”.

Turning to “GAAAGAGACCGGTTCACTGTGA (anti-miR; chemistry not fully specified) [ISIS 327923, uniform 2′-MOE PS; targets mir-128b]”, the “expression of the IGFBP-1, PEPCK-c and follistatin marker genes” value in the data set with HepG2 cells (HepG2, 1 nM insulin) was “increased expression of the IGFBP-1, PEPCK-c and follistatin marker genes”.

Regarding “CACAAATTCGGATCTACAGGGTA (anti-miR; chemistry not fully specified) [ISIS 327949, uniform 2′-MOE PS; targets mir-10a]”, the “expression of the IGFBP-1 and follistatin marker genes” value with HepG2 cells (HepG2, basal (no insulin)) is “increased expression of the IGFBP-1 and follistatin marker genes”.
